Test results published in patent US9963442B2, “Pyridones as herbicides” (E I DU PONT DE NEMOURS AND COMPANY, priority 2014, dated 2018).

What was measured:
Type in all cases: in vivo
[1] = tested on: Italian ryegrass (Lolium multiflorum); assay: Test A preemergence, directed soil spray; details: approx. 10 days
Method in brief: (§1)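 Visual injury score, 0–100 scale (100 = complete control), versus untreated plants after ~10 days greenhouse. Pre: directed soil spray on seeded loam/sand. Post: 2–10 cm plants, 1–2 leaves. Solvent/surfactant formulation.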

[2] = tested on: barnyardgrass (Echinochloa crus-galli); assay: Test A preemergence, directed soil spray; details: approx. 10 days
Method in brief: as §1

[3] = tested on: giant foxtail (Setaria faberii); assay: Test A preemergence, directed soil spray; details: approx. 10 days
Method in brief: as §1

kochia (Kochia scoparia) = assay: Test A preemergence, directed soil spray; details: approx. 10 days
Method in brief: as §1

[4] = tested on: pigweed (Amaranthus retroflexus); assay: Test A preemergence, directed soil spray; details: approx. 10 days
Method in brief: as §1

[5] = tested on: ragweed (common ragweed, Ambrosia elatior); assay: Test A preemergence, directed soil spray; details: approx. 10 days
Method in brief: as §1

[6] = tested on: barnyardgrass (Echinochloa crus-galli); assay: Test B flooded paddy test; parameters: key: 0 = no effect, 100 = complete control; details: Flood, 250 g ai/ha applied to paddy water at 2-leaf stage; visually evaluated after 13 to 15 days; scale 0 (no effect) to 100 (complete control)
Method in brief: (§2)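 Paddy-water application at a 3 cm flood, young plants having two leaves. Water level maintained; greenhouse, 13–15 days; visual 0–100 control rating.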

[7] = tested on: ducksalad (Heteranthera limosa); assay: Test B flooded paddy test; parameters: key: 0 = no effect, 100 = complete control; details: Flood, 250 g ai/ha applied to paddy water at 2-leaf stage; visually evaluated after 13 to 15 days; scale 0 (no effect) to 100 (complete control)
Method in brief: as §2

rice (Oryza sativa) = assay: Test B flooded paddy test; parameters: key: 0 = no effect, 100 = complete control; details: Flood, 250 g ai/ha applied to paddy water at 2-leaf stage; visually evaluated after 13 to 15 days; scale 0 (no effect) to 100 (complete control)
Method in brief: as §2

[8] = tested on: sedge, umbrella (small-flower umbrella sedge, Cyperus difformis); assay: Test B flooded paddy test; parameters: key: 0 = no effect, 100 = complete control; details: Flood, 250 g ai/ha applied to paddy water at 2-leaf stage; visually evaluated after 13 to 15 days; scale 0 (no effect) to 100 (complete control)
Method in brief: as §2

[9] = tested on: barnyardgrass (Echinochloa crus-galli); assay: Test C preemergence; details: scale 0 to 100, 0 is no effect, 100 is complete control
Source text: (§3) Seeds of plant species selected from blackgrass (Alopecurus myosuroides), Italian ryegrass (Lolium multiflorum), winter wheat (Triticum aestivum), galium (catchweed bedstraw, Galium aparine), corn (Zea mays), large (Lg) crabgrass (Digitaria sanguinalis), giant foxtail (Setaria faberii), johnsongrass (Sorghum halepense), lambsquarters (Chenopodium album), morningglory (Ipomoea coccinea), yellow nutsedge (Cyperus esculentus), pigweed (Amaranthus retroflexus), ragweed (common ragweed, Ambrosia elatior), soybean (Glycine max), barnyardgrass (Echinochloa crus-galli), oilseed rape (Brassica napus), waterhemp (common waterhemp, Amaranthus rudis), and velvetleaf (Abutilon theophrasti) were planted into a blend of loam soil and sand and treated preemergence with test chemicals formulated in a non-phytotoxic solvent mixture which included a surfactant. At the same time, plants selected from these crop and weed species and also chickweed (common chickweed, Stellaria media), kochia (Kochia scoparia), and wild oat (Avena fatua), were planted in pots containing Sunshine Redi-Earth® planting medium comprising spaghnum peat moss, vermiculite, starter nutrients and dolomitic limestone and treated with postemergence applications of test chemicals formulated in the same manner. Plants ranged in height from 2 to 18 cm (1- to 4-leaf stage) for postemergence treatments. Treated plants and controls were maintained in a greenhouse for 13 to 15 days, after which time all species were compared to controls and visually evaluated. Plant response ratings, summarized in Table C, are based on a scale of 0 to 100 where 0 is no effect and 100 is complete control. A dash (-) response means no test result.

[10] = tested on: galium (catchweed bedstraw, Galium aparine); assay: Test C preemergence; details: scale 0 to 100, 0 is no effect, 100 is complete control
Source text: as §3

[11] = tested on: giant foxtail (Setaria faberii); assay: Test C preemergence; details: scale 0 to 100, 0 is no effect, 100 is complete control
Source text: as §3

[12] = tested on: large (Lg) crabgrass (Digitaria sanguinalis); assay: Test C preemergence; details: scale 0 to 100, 0 is no effect, 100 is complete control
Source text: as §3

[13] = tested on: velvetleaf (Abutilon theophrasti); assay: Test C preemergence; details: scale 0 to 100, 0 is no effect, 100 is complete control
Source text: as §3

[14] = tested on: winter wheat (Triticum aestivum); assay: Test C preemergence; details: scale 0 to 100, 0 is no effect, 100 is complete control
Source text: as §3

[15] = tested on: barnyardgrass (Echinochloa crus-galli); assay: Test C postemergence; details: scale 0 to 100, 0 is no effect, 100 is complete control
Source text: as §3

[16] = tested on: ragweed (common ragweed, Ambrosia elatior); assay: Test C postemergence; details: scale 0 to 100, 0 is no effect, 100 is complete control
Source text: as §3

O=c1cccc(Oc2ncc(Cl)cn2)n1-c1ccc(Cl)cc1 [Compound 1, 1-(4-chlorophenyl)-6-[(5-chloro-2-pyrimidinyl)oxy]-2(1H)-pyridinone]
5: Plant response rating, Barnyardgrass ([9]; 16 g ai/ha) | Plant response rating, Crabgrass, Large ([12]; 16 g ai/ha) | Plant response rating, Velvetleaf ([13]; 62 g ai/ha) | Plant response rating, Barnyardgrass ([15]; 16 g ai/ha) | Plant response rating, Barnyardgrass ([15]; 31 g ai/ha)
30: Plant response rating (0 to 100 scale, 0 no effect, 100 complete control), Barnyardgrass ([2]; 125 g ai/ha)
65: Plant response rating, Sedge, Umbrella [8]
70: Plant response rating, Crabgrass, Large ([12]; 31 g ai/ha) | Plant response rating, Ragweed ([16]; 31 g ai/ha)
45: Plant response rating, Ducksalad [7]
55: Plant response rating, Foxtail, Giant ([11]; 31 g ai/ha)
20: Plant response rating (0 to 100 scale, 0 no effect, 100 complete control), Ryegrass, Italian ([1]; 500 g ai/ha) | Plant response rating (0 to 100 scale, 0 no effect, 100 complete control), Ragweed ([5]; 500 g ai/ha) | Plant response rating, Barnyardgrass [6] | Plant response rating, Barnyardgrass ([9]; 31 g ai/ha)
40: Plant response rating (0 to 100 scale, 0 no effect, 100 complete control), Kochia (kochia (Kochia scoparia); 125 g ai/ha) | Plant response rating (0 to 100 scale, 0 no effect, 100 complete control), Pigweed ([4]; 125 g ai/ha) | Plant response rating, Barnyardgrass ([9]; 62 g ai/ha) | Plant response rating, Galium ([10]; 125 g ai/ha) | Plant response rating, Ragweed ([16]; 125 g ai/ha)
75: Plant response rating, Barnyardgrass ([9]; 125 g ai/ha)
98: Plant response rating, Crabgrass, Large ([12]; 62 g ai/ha)
90: Plant response rating (0 to 100 scale, 0 no effect, 100 complete control), Foxtail, Giant ([3]; 125 g ai/ha) | Plant response rating, Galium ([10]; 16 g ai/ha) | Plant response rating, Foxtail, Giant ([11]; 62 g ai/ha)
0: Plant response rating (0 to 100 scale, 0 no effect, 100 complete control), Ryegrass, Italian ([1]; 125 g ai/ha) | Plant response rating (0 to 100 scale, 0 no effect, 100 complete control), Ragweed ([5]; 125 g ai/ha) | Plant response rating, Galium ([10]; 31 g ai/ha) | Plant response rating, Galium ([10]; 62 g ai/ha) | Plant response rating, Velvetleaf ([13]; 16 g ai/ha) | Plant response rating, Velvetleaf ([13]; 31 g ai/ha) | Plant response rating, Wheat ([14]; 16 g ai/ha) | Plant response rating, Wheat ([14]; 31 g ai/ha) | Plant response rating, Wheat ([14]; 62 g ai/ha) | Plant response rating, Wheat ([14]; 125 g ai/ha)
35: Plant response rating, Ragweed ([16]; 62 g ai/ha)
100: Plant response rating (0 to 100 scale, 0 no effect, 100 complete control), Barnyardgrass ([2]; 500 g ai/ha) | Plant response rating (0 to 100 scale, 0 no effect, 100 complete control), Foxtail, Giant ([3]; 500 g ai/ha) | Plant response rating (0 to 100 scale, 0 no effect, 100 complete control), Kochia (kochia (Kochia scoparia); 500 g ai/ha) | Plant response rating (0 to 100 scale, 0 no effect, 100 complete control), Pigweed ([4]; 500 g ai/ha) | Plant response rating, Foxtail, Giant ([11]; 125 g ai/ha) | Plant response rating, Crabgrass, Large ([12]; 125 g ai/ha)
10: Plant response rating, Rice (rice (Oryza sativa)) | Plant response rating, Foxtail, Giant ([11]; 16 g ai/ha) | Plant response rating, Velvetleaf ([13]; 125 g ai/ha) | Plant response rating, Barnyardgrass ([15]; 62 g ai/ha) | Plant response rating, Barnyardgrass ([15]; 125 g ai/ha) | Plant response rating, Ragweed ([16]; 16 g ai/ha)
